Assays:
[1] = biological target: T1, Rev-Erb alpha (Homo sapiens, UniProt P20393); experiment: M2H (mammalian two-hybrid) cellular activation assay of Rev-Erb alpha; type: cell-based; details: M2H assay, HEK293 cells; for EC50: Gal4-Rev-Erb alpha / VP16-NCoR, luciferase reporter; for Emax: relative to DMSO, at the tested dose, read-out: TOP activation
T1 sequence (P20393 284-614 limits assumed): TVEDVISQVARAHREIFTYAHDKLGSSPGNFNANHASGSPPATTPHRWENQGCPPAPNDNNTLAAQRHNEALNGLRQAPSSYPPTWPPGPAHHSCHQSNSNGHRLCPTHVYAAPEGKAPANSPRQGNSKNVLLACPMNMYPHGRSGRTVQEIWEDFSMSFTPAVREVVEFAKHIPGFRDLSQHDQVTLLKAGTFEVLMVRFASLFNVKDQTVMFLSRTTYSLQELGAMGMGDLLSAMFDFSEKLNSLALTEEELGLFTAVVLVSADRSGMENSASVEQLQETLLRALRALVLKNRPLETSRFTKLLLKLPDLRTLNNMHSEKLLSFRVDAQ
Procedure, shortened: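 Six-point dose-response, 18 h, 37 °C, serum-free, in HEK293 cells carrying a Gal4-RE luciferase reporter with Gal4-Rev-Erb alpha or beta plus VP16-NCoR (corepressor interaction readout). EC50 and TOP activation (%) derived from luminescence across four experiments.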

SMILES	EC50 [1]	melting point	Emax [1]
Clc1nnc2ccc(Oc3ccc(CNCC4CCCCC4)cc3-c3ccccc3)nn12 [Cpd.4-162, 3-chloro-6-(5-((cyclohexylmethyl)aminomethyl)biphenyl-2-yloxy)-[1,2,4]triazolo[4,3-b]pyridazine]	1000 to 6000 nM	53.4 to 55.7 °C	
CC(C)CCNc1ccc(-c2ccccc2)c(Oc2ccc3nnc(Cl)n3n2)c1 [Cpd.4-175, 3-chloro-6-(4-((3-methylbutyl)amino)biphenyl-2-yloxy)-[1,2,4]triazolo[4,3-b]pyridazine]	100 to 1000 nM	145 to 150 °C	
O=[N+]([O-])c1cccc(-c2cc(F)ccc2Oc2ccc3nnc(Cl)n3n2)c1 [Cpd.4-187, 3-chloro-6-(5-fluoro-3′-nitrobiphenyl-2-yloxy)-[1,2,4]triazolo[4,3-b]pyridazine]	1000 to 6000 nM	190.5 °C	
Fc1ccc(-c2cc(F)ccc2Oc2ccc3nnc(Cl)n3n2)c(F)c1 [Cpd.4-188, 3-chloro-6-(5,2′,4′-trifluorobiphenyl-2-yloxy)-[1,2,4]triazolo[4,3-b]pyridazine]	100 to 1000 nM	143.6 °C	
COC(=O)CCNc1ccc(Oc2ccc3nnc(Cl)n3n2)c(-c2ccccc2)c1 [Cpd.4-190, 3-chloro-6-(5-methyloxycarbonylethylamino-biphenyl-2-yloxy)-[1,2,4]triazolo[4,3-b]pyridazine]	1000 to 6000 nM	52 to 57 °C	
COc1ncc(F)cc1-c1ccc(C(F)(F)F)cc1Oc1cc(C)c2nnc(Cl)n2n1 [Cpd.4-193, 3-chloro-8-methyl-6-((2-(2-methoxy-5-fluoropyridin-3-yl))-5-(trifluoromethyl)-phenoxy)-[1,2,4]triazolo[4,3-b]pyridazine]	100 to 1000 nM	130 to 132 °C	
Clc1ccc(Oc2ccc3nnc(Cl)n3n2)c(-c2cncnc2)c1 [Cpd.4-194, 3-chloro-6-(4-chloro-2-(pyrimidin-5-yl)phenoxy)-[1,2,4]triazolo[4,3-b]pyridazine]	> 6000 nM	152 to 155 °C	> 130%
COc1ncc(-c2cc(Cl)ccc2Oc2ccc3nnc(Cl)n3n2)cn1 [Cpd.4-195, 3-chloro-6-(4-chloro-2-(2-methoxypyrimidin-5-yl)phenoxy)-[1,2,4]triazolo[4,3-b]pyridazine]	> 6000 nM	210 to 211 °C	> 130%

The next lines start with the values.

EC50 [1]	melting point	Emax [1]	SMILES
1000 to 6000 nM	59.1 °C		CC(C)N(Cc1ccc(Oc2ccc3nnc(Cl)n3n2)c(-c2ccccc2)c1)C(C)C [Cpd.4-166, 3-chloro-6-(5-(diisopropylaminomethyl)biphenyl-2-yloxy)-[1,2,4]triazolo[4,3-b]pyridazine]
1000 to 6000 nM	163 to 164 °C		Clc1nnc2ccc(Oc3cc(CN4CCCCC4)ccc3-c3ccccc3)nn12 [Cpd.4-183, 3-chloro-6-(4-piperidin-1-ylmethylbiphenyl-2-yloxy)-[1,2,4]triazolo[4,3-b]pyridazine]
1000 to 6000 nM	110 to 112 °C		CCN(CC)Cc1ccc(-c2ccccc2)c(Oc2ccc3nnc(Cl)n3n2)c1 [Cpd.4-184, 3-chloro-6-(4-diethylaminomethylbiphenyl-2-yloxy)-[1,2,4]triazolo[4,3-b]pyridazine]
100 to 1000 nM	154 to 159 °C		Clc1nnc2ccc(Oc3cc(NCCC4CCCCC4)ccc3-c3ccccc3)nn12 [Cpd.4-185, 3-chloro-6-(4-((cyclohexylethyl)amino)biphenyl-2-yloxy)-[1,2,4]triazolo[4,3-b]pyridazine]
< 100 nM	170 to 175 °C		CC(C)Nc1ccc(-c2ccccc2)c(Oc2ccc3nnc(Cl)n3n2)c1 [Cpd.4-189, 3-chloro-6-(4-isopropylamino-biphenyl-2-yloxy)-[1,2,4]triazolo[4,3-b]pyridazine]
1000 to 6000 nM	163 to 165 °C		CCC(=O)Nc1ccc(Oc2ccc3nnc(Cl)n3n2)c(-c2ccccc2)c1 [Cpd.4-191, 3-chloro-6-(5-ethylcarbonylamino-biphenyl-2-yloxy)-[1,2,4]triazolo[4,3-b]pyridazine]
